Measured values reported in ChEMBL document CHEMBL5331077, “Combining pharmacophore models derived from DNA-encoded chemical libraries with structure-based exploration to predict Tankyrase 1 inhibitors” (Eur J Med Chem, 2023).
The source made the active and inactive calls. The rule behind the calls is not given here.

How the values were obtained:
[1] = target: T1, Protein mono-ADP-ribosyltransferase PARP3 (Homo sapiens) (UniProt Q9Y6F1); assay: Inhibition of PARP3 (unknown origin)
T1 sequence (whole entry): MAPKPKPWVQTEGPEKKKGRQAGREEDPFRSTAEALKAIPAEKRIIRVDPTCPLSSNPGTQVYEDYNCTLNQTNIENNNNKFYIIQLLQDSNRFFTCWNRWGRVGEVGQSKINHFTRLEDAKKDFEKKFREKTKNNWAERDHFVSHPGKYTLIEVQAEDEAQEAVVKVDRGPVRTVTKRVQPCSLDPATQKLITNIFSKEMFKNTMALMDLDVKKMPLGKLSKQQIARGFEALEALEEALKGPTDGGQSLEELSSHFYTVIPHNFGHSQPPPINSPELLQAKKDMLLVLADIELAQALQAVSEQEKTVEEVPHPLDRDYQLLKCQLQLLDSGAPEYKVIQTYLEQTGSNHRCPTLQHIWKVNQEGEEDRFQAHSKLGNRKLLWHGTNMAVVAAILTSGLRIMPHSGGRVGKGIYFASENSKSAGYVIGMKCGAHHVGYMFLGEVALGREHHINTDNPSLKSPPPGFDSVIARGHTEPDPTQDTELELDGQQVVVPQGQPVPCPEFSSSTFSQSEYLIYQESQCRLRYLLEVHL

[2] = target: T2, Protein mono-ADP-ribosyltransferase PARP8 (Homo sapiens) (UniProt Q8N3A8); assay: Inhibition of PARP8 (unknown origin)
T2 sequence (whole entry): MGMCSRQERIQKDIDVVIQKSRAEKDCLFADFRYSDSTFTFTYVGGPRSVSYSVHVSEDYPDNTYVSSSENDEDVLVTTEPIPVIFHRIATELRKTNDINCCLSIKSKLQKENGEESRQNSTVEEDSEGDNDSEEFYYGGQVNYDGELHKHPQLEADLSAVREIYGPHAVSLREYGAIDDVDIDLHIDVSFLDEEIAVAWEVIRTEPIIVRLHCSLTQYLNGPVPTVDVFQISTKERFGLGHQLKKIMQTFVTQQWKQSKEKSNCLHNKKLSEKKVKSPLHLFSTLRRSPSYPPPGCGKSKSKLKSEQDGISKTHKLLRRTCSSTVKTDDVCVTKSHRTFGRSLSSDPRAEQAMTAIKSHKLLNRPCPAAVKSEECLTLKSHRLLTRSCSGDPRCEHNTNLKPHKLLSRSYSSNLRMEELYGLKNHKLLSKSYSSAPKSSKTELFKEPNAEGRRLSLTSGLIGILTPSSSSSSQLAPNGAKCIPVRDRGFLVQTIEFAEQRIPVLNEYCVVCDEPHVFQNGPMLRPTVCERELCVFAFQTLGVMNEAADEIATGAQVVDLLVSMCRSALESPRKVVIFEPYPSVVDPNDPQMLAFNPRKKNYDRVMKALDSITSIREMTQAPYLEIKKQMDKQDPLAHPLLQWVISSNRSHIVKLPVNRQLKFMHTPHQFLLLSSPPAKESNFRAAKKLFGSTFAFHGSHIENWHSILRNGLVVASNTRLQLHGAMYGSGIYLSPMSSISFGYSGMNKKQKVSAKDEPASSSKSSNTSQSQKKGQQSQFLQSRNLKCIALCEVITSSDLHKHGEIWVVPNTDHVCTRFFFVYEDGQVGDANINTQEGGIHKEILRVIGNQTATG

[3] = target: T3, Protein mono-ADP-ribosyltransferase PARP10 (Homo sapiens) (UniProt Q53GL7); assay: Inhibition of PARP10 (unknown origin)
T3 sequence (whole entry): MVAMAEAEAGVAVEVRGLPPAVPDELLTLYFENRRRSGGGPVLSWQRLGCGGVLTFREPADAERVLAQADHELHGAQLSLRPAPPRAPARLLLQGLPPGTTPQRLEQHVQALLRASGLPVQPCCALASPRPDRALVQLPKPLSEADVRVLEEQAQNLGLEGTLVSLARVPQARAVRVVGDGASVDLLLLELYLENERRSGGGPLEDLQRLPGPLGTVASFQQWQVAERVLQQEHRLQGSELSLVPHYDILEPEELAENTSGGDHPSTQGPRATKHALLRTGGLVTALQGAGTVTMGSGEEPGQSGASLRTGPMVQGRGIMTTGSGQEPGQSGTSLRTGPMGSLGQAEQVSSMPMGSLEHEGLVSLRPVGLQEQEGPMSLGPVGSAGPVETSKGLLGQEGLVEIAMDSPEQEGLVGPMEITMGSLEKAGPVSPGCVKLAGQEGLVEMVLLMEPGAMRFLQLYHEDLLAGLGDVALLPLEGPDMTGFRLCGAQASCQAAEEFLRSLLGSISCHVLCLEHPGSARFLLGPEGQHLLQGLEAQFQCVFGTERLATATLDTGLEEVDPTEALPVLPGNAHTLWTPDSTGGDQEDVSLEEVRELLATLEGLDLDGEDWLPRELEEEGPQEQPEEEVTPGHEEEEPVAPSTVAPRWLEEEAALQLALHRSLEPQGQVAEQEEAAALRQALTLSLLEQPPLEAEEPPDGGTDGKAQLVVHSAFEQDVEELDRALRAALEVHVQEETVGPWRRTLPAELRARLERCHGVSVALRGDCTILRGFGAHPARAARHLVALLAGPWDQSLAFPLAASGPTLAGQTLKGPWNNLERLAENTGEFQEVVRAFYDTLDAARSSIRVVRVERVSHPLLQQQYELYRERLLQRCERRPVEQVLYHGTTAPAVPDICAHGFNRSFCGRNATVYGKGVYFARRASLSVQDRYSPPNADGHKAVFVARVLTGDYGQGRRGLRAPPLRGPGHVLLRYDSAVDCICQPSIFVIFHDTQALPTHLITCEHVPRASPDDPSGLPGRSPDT

[4] = target: Protein mono-ADP-ribosyltransferase PARP14 (Homo sapiens) (UniProt Q460N5); assay: Inhibition of PARP14 (unknown origin)
Protein mono-ADP-ribosyltransferase PARP14 (Homo sapiens), sequence (Q460N5 whole entry): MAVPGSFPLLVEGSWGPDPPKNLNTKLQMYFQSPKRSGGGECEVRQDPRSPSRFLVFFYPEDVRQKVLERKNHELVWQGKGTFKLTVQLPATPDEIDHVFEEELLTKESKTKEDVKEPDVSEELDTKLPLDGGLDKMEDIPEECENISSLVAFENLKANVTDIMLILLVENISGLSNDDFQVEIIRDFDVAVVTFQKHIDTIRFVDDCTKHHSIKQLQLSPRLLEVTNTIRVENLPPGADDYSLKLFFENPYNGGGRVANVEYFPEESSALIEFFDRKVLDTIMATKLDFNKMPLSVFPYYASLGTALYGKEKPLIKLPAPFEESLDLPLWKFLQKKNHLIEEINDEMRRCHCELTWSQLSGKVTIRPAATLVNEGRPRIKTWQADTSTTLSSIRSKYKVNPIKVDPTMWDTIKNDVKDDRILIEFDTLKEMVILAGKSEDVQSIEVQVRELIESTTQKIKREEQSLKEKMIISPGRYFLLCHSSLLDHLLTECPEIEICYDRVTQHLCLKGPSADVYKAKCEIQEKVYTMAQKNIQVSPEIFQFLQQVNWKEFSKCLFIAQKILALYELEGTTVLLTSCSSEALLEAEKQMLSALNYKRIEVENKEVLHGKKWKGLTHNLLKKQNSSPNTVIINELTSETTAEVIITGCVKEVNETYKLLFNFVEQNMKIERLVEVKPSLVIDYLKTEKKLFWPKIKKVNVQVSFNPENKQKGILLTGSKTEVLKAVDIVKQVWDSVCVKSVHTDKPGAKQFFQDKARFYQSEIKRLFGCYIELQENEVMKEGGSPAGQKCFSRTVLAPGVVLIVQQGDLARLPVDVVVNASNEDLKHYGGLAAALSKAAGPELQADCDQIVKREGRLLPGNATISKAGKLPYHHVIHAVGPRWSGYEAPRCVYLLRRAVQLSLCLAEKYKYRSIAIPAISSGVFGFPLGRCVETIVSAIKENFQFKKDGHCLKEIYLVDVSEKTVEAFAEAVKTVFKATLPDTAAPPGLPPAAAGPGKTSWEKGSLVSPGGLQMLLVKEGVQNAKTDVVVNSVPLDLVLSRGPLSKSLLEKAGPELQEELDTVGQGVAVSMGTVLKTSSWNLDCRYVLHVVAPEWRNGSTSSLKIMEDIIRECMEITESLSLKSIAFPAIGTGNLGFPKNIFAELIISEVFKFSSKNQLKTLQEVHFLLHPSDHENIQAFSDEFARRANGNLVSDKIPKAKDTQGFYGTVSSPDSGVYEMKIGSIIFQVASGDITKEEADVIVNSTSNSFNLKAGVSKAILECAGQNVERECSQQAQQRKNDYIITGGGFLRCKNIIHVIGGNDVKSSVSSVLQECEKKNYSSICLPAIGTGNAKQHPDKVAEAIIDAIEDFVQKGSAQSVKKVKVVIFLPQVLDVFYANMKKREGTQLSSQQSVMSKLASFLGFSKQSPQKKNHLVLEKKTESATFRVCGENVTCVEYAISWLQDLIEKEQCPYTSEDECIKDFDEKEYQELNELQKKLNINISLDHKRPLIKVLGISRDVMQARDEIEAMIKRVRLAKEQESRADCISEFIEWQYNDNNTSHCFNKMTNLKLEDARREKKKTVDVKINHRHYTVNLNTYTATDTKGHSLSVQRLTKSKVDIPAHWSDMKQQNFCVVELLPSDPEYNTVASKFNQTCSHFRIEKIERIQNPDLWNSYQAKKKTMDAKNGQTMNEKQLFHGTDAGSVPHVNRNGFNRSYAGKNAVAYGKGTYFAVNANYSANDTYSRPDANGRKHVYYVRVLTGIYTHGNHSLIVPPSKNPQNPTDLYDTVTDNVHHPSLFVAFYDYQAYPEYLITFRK

Structure (SMILES)	inhibition [1]	inhibition [2]	inhibition [3]	inhibition [4]
CNC(=O)[C@H](CNC(=O)CCn1c(=O)[nH]c(=O)c2ccccc21)NC(=O)c1cnc2ccccc2c1	inactive	inactive	inactive	inactive
Cc1cc(OCC(=O)NCCNC(=O)c2cccc(COc3ccccc3C(N)=O)c2)c2c3c(c(=O)oc2c1)CCC3	inactive	inactive	Active	inactive
